Values quoted from earlier work as cited in patent US20150182535A1, “Antimicrobial Composition for the Treatment of Methicillin-resistant Staphylococcus aureus” (priority 2014, published 2015).

Test system: humans

Compound | toxicity (general statement in words) | safety relative to artemether | toxicity relative to chloroquinine
C[C@H]1[C@H](N2CCS(=O)(=O)CC2)O[C@@H]2O[C@@]3(C)CC[C@H]4[C@H](C)CC[C@@H]1[C@@]24OO3 [Artemisone] | very low toxicity | – | –
C[C@H]1[C@H](OC(=O)CCC(=O)O)O[C@@H]2O[C@@]3(C)CC[C@H]4[C@H](C)CC[C@@H]1[C@@]24OO3 [artesunate] | – | twice as safe | one-fiftieth
